Test results published in the NIST ThermoML archive (doi:10.1016/j.jct.2019.01.012).
Numbers after ± are expanded uncertainties.

Experiment: molar enthalpy of vaporization or sublimation
Settings: 298.15 K; Liquid; Static calorimetry

| molar enthalpy | SMILES |
| --- | --- |
| 12.5 ± 0.335 kcal/mol | CC1=CC(=O)CC1 [3-methyl-2-cyclopenten-1-one] |
| 12.5 ± 0.359 kcal/mol | O=C1C=CCC1 [2-cyclopenten-1-one] |
